According to publication PMC10938783, “A novel pan-PI3K inhibitor KTC1101 synergizes with anti-PD-1 therapy by targeting tumor suppression and immune activation” (Molecular Cancer, 2024):

System: B16 cells gene expression
Test: RNA-Seq (DEGs, GSEA, heatmaps) of B16 cells
Settings: B16 cells, KTC 0.2μM

COc1cc(N)cc2c1nc(C(F)F)n2-c1nc(N2CCCOCC2)nc(N2CCOCC2)n1 [KTC1101, 2-(difluoromethyl)-4-methoxy-1-(4-morpholino-6-(1,4-oxazepan-4-yl)-1,3,5-triazin-2-yl)-1H-benzo[d]imidazol-6-amine]
NES: Platinum drug resistance (GSEA KEGG mmu01524): -1.706
enrichmentScore: Platinum drug resistance (GSEA KEGG mmu01524): -0.4321
NES: Ribosome (GSEA KEGG mmu03010): 2.0791
enrichmentScore: Ribosome (GSEA KEGG mmu03010): 0.5599
NES: Nucleocytoplasmic transport (GSEA KEGG mmu03013): -1.168
enrichmentScore: Nucleocytoplasmic transport (GSEA KEGG mmu03013): -0.2706
NES: DNA replication (GSEA KEGG mmu03030): -1.22
enrichmentScore: DNA replication (GSEA KEGG mmu03030): -0.374
NES: Proteasome (GSEA KEGG mmu03050): -1.869
enrichmentScore: Proteasome (GSEA KEGG mmu03050): -0.5072
NES: PPAR signaling pathway (GSEA KEGG mmu03320): -1.414
enrichmentScore: PPAR signaling pathway (GSEA KEGG mmu03320): -0.3831
NES: Homologous recombination (GSEA KEGG mmu03440): -1.259
enrichmentScore: Homologous recombination (GSEA KEGG mmu03440): -0.3597
NES: MAPK signaling pathway (GSEA KEGG mmu04010): 1.18
enrichmentScore: MAPK signaling pathway (GSEA KEGG mmu04010): 0.3038
NES: ErbB signaling pathway (GSEA KEGG mmu04012): 1.235
enrichmentScore: ErbB signaling pathway (GSEA KEGG mmu04012): 0.3633
NES: Rap1 signaling pathway (GSEA KEGG mmu04015): 1.294
enrichmentScore: Rap1 signaling pathway (GSEA KEGG mmu04015): 0.3507
NES: Calcium signaling pathway (GSEA KEGG mmu04020): 1.795
enrichmentScore: Calcium signaling pathway (GSEA KEGG mmu04020): 0.4973
NES: cGMP-PKG signaling pathway (GSEA KEGG mmu04022): 1.703
enrichmentScore: cGMP-PKG signaling pathway (GSEA KEGG mmu04022): 0.4759
NES: cAMP signaling pathway (GSEA KEGG mmu04024): 1.563
enrichmentScore: cAMP signaling pathway (GSEA KEGG mmu04024): 0.4327
NES: Cytokine-cytokine receptor interaction (GSEA KEGG mmu04060): 1.941
enrichmentScore: Cytokine-cytokine receptor interaction (GSEA KEGG mmu04060): 0.59
NES: Viral protein interaction with cytokine and cytokine receptor (GSEA KEGG mmu04061): 2.1
enrichmentScore: Viral protein interaction with cytokine and cytokine receptor (GSEA KEGG mmu04061): 0.7876
NES: Chemokine signaling pathway (GSEA KEGG mmu04062): 1.837
enrichmentScore: Chemokine signaling pathway (GSEA KEGG mmu04062): 0.514
NES: NF-kappa B signaling pathway (GSEA KEGG mmu04064): 1.257
enrichmentScore: NF-kappa B signaling pathway (GSEA KEGG mmu04064): 0.3844
NES: HIF-1 signaling pathway (GSEA KEGG mmu04066): -1.602
enrichmentScore: HIF-1 signaling pathway (GSEA KEGG mmu04066): -0.3782
NES: Phospholipase D signaling pathway (GSEA KEGG mmu04072): 1.435
enrichmentScore: Phospholipase D signaling pathway (GSEA KEGG mmu04072): 0.4011
NES: Neuroactive ligand-receptor interaction (GSEA KEGG mmu04080): 1.734
enrichmentScore: Neuroactive ligand-receptor interaction (GSEA KEGG mmu04080): 0.5578
NES: Cell cycle (GSEA KEGG mmu04110): -1.229
enrichmentScore: Cell cycle (GSEA KEGG mmu04110): -0.265
NES: Oocyte meiosis (GSEA KEGG mmu04114): -1.291
enrichmentScore: Oocyte meiosis (GSEA KEGG mmu04114): -0.2991
NES: Protein processing in endoplasmic reticulum (GSEA KEGG mmu04141): -1.222
enrichmentScore: Protein processing in endoplasmic reticulum (GSEA KEGG mmu04141): -0.2637
NES: Lysosome (GSEA KEGG mmu04142): -1.281
enrichmentScore: Lysosome (GSEA KEGG mmu04142): -0.2917
NES: Phagosome (GSEA KEGG mmu04145): -1.483
enrichmentScore: Phagosome (GSEA KEGG mmu04145): -0.3503
NES: PI3K-Akt signaling pathway (GSEA KEGG mmu04151): 1.456
enrichmentScore: PI3K-Akt signaling pathway (GSEA KEGG mmu04151): 0.3693
NES: Cellular senescence (GSEA KEGG mmu04218): 1.209
enrichmentScore: Cellular senescence (GSEA KEGG mmu04218): 0.3231
NES: Cardiac muscle contraction (GSEA KEGG mmu04260): 1.313
enrichmentScore: Cardiac muscle contraction (GSEA KEGG mmu04260): 0.4187
NES: Adrenergic signaling in cardiomyocytes (GSEA KEGG mmu04261): 1.264
enrichmentScore: Adrenergic signaling in cardiomyocytes (GSEA KEGG mmu04261): 0.3566
NES: Wnt signaling pathway (GSEA KEGG mmu04310): 1.195
enrichmentScore: Wnt signaling pathway (GSEA KEGG mmu04310): 0.334
NES: Notch signaling pathway (GSEA KEGG mmu04330): 1.378
enrichmentScore: Notch signaling pathway (GSEA KEGG mmu04330): 0.4468
NES: Hedgehog signaling pathway (GSEA KEGG mmu04340): -1.456
enrichmentScore: Hedgehog signaling pathway (GSEA KEGG mmu04340): -0.4001
NES: TGF-beta signaling pathway (GSEA KEGG mmu04350): 1.497
enrichmentScore: TGF-beta signaling pathway (GSEA KEGG mmu04350): 0.4579
NES: VEGF signaling pathway (GSEA KEGG mmu04370): -1.413
enrichmentScore: VEGF signaling pathway (GSEA KEGG mmu04370): -0.3829
NES: Apelin signaling pathway (GSEA KEGG mmu04371): 1.504
enrichmentScore: Apelin signaling pathway (GSEA KEGG mmu04371): 0.4209
NES: Osteoclast differentiation (GSEA KEGG mmu04380): 1.356
enrichmentScore: Osteoclast differentiation (GSEA KEGG mmu04380): 0.3943
NES: Hippo signaling pathway (GSEA KEGG mmu04390): 1.527
enrichmentScore: Hippo signaling pathway (GSEA KEGG mmu04390): 0.4244
NES: Focal adhesion (GSEA KEGG mmu04510): 1.45
enrichmentScore: Focal adhesion (GSEA KEGG mmu04510): 0.3877
NES: ECM-receptor interaction (GSEA KEGG mmu04512): 1.51
enrichmentScore: ECM-receptor interaction (GSEA KEGG mmu04512): 0.4857
NES: Gap junction (GSEA KEGG mmu04540): 1.307
enrichmentScore: Gap junction (GSEA KEGG mmu04540): 0.3903
NES: Complement and coagulation cascades (GSEA KEGG mmu04610): 1.788
enrichmentScore: Complement and coagulation cascades (GSEA KEGG mmu04610): 0.6389
NES: Neutrophil extracellular trap formation (GSEA KEGG mmu04613): 1.259
enrichmentScore: Neutrophil extracellular trap formation (GSEA KEGG mmu04613): 0.3655
NES: Toll-like receptor signaling pathway (GSEA KEGG mmu04620): 1.2254
enrichmentScore: Toll-like receptor signaling pathway (GSEA KEGG mmu04620): 0.3682
NES: NOD-like receptor signaling pathway (GSEA KEGG mmu04621): 1.434
enrichmentScore: NOD-like receptor signaling pathway (GSEA KEGG mmu04621): 0.4008
NES: C-type lectin receptor signaling pathway (GSEA KEGG mmu04625): 1.433
enrichmentScore: C-type lectin receptor signaling pathway (GSEA KEGG mmu04625): 0.4281
NES: JAK-STAT signaling pathway (GSEA KEGG mmu04630): 1.466
enrichmentScore: JAK-STAT signaling pathway (GSEA KEGG mmu04630): 0.4286
NES: Hematopoietic cell lineage (GSEA KEGG mmu04640): 1.336
enrichmentScore: Hematopoietic cell lineage (GSEA KEGG mmu04640): 0.501
NES: IL-17 signaling pathway (GSEA KEGG mmu04657): 1.494
enrichmentScore: IL-17 signaling pathway (GSEA KEGG mmu04657): 0.4654
NES: Th17 cell differentiation (GSEA KEGG mmu04659): 1.198
enrichmentScore: Th17 cell differentiation (GSEA KEGG mmu04659): 0.3665
NES: Fc epsilon RI signaling pathway (GSEA KEGG mmu04664): -1.329
enrichmentScore: Fc epsilon RI signaling pathway (GSEA KEGG mmu04664): -0.3636
NES: TNF signaling pathway (GSEA KEGG mmu04668): 1.66
enrichmentScore: TNF signaling pathway (GSEA KEGG mmu04668): 0.4756
NES: Circadian rhythm (GSEA KEGG mmu04710): -1.714
enrichmentScore: Circadian rhythm (GSEA KEGG mmu04710): -0.5347
NES: Circadian entrainment (GSEA KEGG mmu04713): 1.598
enrichmentScore: Circadian entrainment (GSEA KEGG mmu04713): 0.4957
NES: Synaptic vesicle cycle (GSEA KEGG mmu04721): -1.378
enrichmentScore: Synaptic vesicle cycle (GSEA KEGG mmu04721): -0.3771
NES: Neurotrophin signaling pathway (GSEA KEGG mmu04722): 1.347
enrichmentScore: Neurotrophin signaling pathway (GSEA KEGG mmu04722): 0.3745
NES: Glutamatergic synapse (GSEA KEGG mmu04724): 1.249
enrichmentScore: Glutamatergic synapse (GSEA KEGG mmu04724): 0.3819
NES: Cholinergic synapse (GSEA KEGG mmu04725): 1.403
enrichmentScore: Cholinergic synapse (GSEA KEGG mmu04725): 0.4174
NES: Olfactory transduction (GSEA KEGG mmu04740): 1.83
enrichmentScore: Olfactory transduction (GSEA KEGG mmu04740): 0.66
NES: Taste transduction (GSEA KEGG mmu04742): 1.885
enrichmentScore: Taste transduction (GSEA KEGG mmu04742): 0.7021
NES: Regulation of actin cytoskeleton (GSEA KEGG mmu04810): 1.182
enrichmentScore: Regulation of actin cytoskeleton (GSEA KEGG mmu04810): 0.312
NES: Motor proteins (GSEA KEGG mmu04814): -1.623
enrichmentScore: Motor proteins (GSEA KEGG mmu04814): -0.3694
NES: Insulin secretion (GSEA KEGG mmu04911): 1.364
enrichmentScore: Insulin secretion (GSEA KEGG mmu04911): 0.4349
NES: Ovarian steroidogenesis (GSEA KEGG mmu04913): 1.397
enrichmentScore: Ovarian steroidogenesis (GSEA KEGG mmu04913): 0.499
NES: Progesterone-mediated oocyte maturation (GSEA KEGG mmu04914): -1.352
enrichmentScore: Progesterone-mediated oocyte maturation (GSEA KEGG mmu04914): -0.3392
NES: Thyroid hormone synthesis (GSEA KEGG mmu04918): 1.21
enrichmentScore: Thyroid hormone synthesis (GSEA KEGG mmu04918): 0.3822
NES: Thyroid hormone signaling pathway (GSEA KEGG mmu04919): -1.193
enrichmentScore: Thyroid hormone signaling pathway (GSEA KEGG mmu04919): -0.278
NES: Oxytocin signaling pathway (GSEA KEGG mmu04921): 1.2549
enrichmentScore: Oxytocin signaling pathway (GSEA KEGG mmu04921): 0.3525
NES: Glucagon signaling pathway (GSEA KEGG mmu04922): -1.435
enrichmentScore: Glucagon signaling pathway (GSEA KEGG mmu04922): -0.3522
NES: Regulation of lipolysis in adipocytes (GSEA KEGG mmu04923): 1.37
enrichmentScore: Regulation of lipolysis in adipocytes (GSEA KEGG mmu04923): 0.4649
NES: Renin secretion (GSEA KEGG mmu04924): 1.644
enrichmentScore: Renin secretion (GSEA KEGG mmu04924): 0.5567
NES: Aldosterone synthesis and secretion (GSEA KEGG mmu04925): 1.273
enrichmentScore: Aldosterone synthesis and secretion (GSEA KEGG mmu04925): 0.3803
NES: Relaxin signaling pathway (GSEA KEGG mmu04926): 1.257
enrichmentScore: Relaxin signaling pathway (GSEA KEGG mmu04926): 0.3545
NES: Cortisol synthesis and secretion (GSEA KEGG mmu04927): 1.396
enrichmentScore: Cortisol synthesis and secretion (GSEA KEGG mmu04927): 0.4573
NES: Parathyroid hormone synthesis, secretion and action (GSEA KEGG mmu04928): 1.74
enrichmentScore: Parathyroid hormone synthesis, secretion and action (GSEA KEGG mmu04928): 0.5119
NES: Insulin resistance (GSEA KEGG mmu04931): -1.682
enrichmentScore: Insulin resistance (GSEA KEGG mmu04931): -0.394
NES: AGE-RAGE signaling pathway in diabetic complications (GSEA KEGG mmu04933): 1.385
enrichmentScore: AGE-RAGE signaling pathway in diabetic complications (GSEA KEGG mmu04933): 0.4005
NES: Growth hormone synthesis, secretion and action (GSEA KEGG mmu04935): 1.209
enrichmentScore: Growth hormone synthesis, secretion and action (GSEA KEGG mmu04935): 0.3459
NES: Collecting duct acid secretion (GSEA KEGG mmu04966): -1.6527
enrichmentScore: Collecting duct acid secretion (GSEA KEGG mmu04966): -0.5648
NES: Gastric acid secretion (GSEA KEGG mmu04971): 1.497
enrichmentScore: Gastric acid secretion (GSEA KEGG mmu04971): 0.4728
NES: Carbohydrate digestion and absorption (GSEA KEGG mmu04973): 1.258
enrichmentScore: Carbohydrate digestion and absorption (GSEA KEGG mmu04973): 0.4436
NES: Protein digestion and absorption (GSEA KEGG mmu04974): 1.8879
enrichmentScore: Protein digestion and absorption (GSEA KEGG mmu04974): 0.6074
